In general, pIC50 refers to −log10 of the IC50, conventionally taken in molar units. The low end stands for a large IC50, the high end for a small IC50.

pIC50: −log10 of the molar value. Some results are limits rather than exact numbers.

IC50 data for four compounds are collected here from patent publication US5880128A, “Carbonyl piperazinyl and piperidinyl compounds” (Schering Corporation, priority 1996, dated 1999).

The assay concerns the target farnesyl protein transferase (FPT). The assay is described as follows: In vitro enzyme assay: inhibition of farnesyl protein transferase (FPT, FTase). In kind it is biochemical, rat; human. The note with it: concentration of compound which inhibits 50% of FPT transferase. The source says: 1. In vitro enzyme assays: Inhibition of farnesyl protein transferase and geranylgeranyl protein transferase.
Both farnesyl protein transferase (FPT) and geranylgeranyl protein transferase (GGPT) I are partially purified from rat brain by ammonium sulfate fractionation followed by Q-Sepharose (Pharmacia, Inc.) anion exchange chromatography essentially as described by Yokoyama et al (Yokoyama, K., et al., (1991), A protein geranylgeranyltransferase from bovine brain: Implications for protein prenylation specificity, Proc. Natl. Acad. Sci USA 88: 5302-5306, the disclosure of which is incorporated herein by reference thereto). Human farnesyl protein transferase is also expressed in E. coli, using cDNA clones encoding both the α and β subunits. The methods used are similar to those published (Omer, C. et al., (1993), Characterization of recombinant human farnesyl protein transferase: Cloning, expression, farnesyl diphosphate binding, and functional homology with yeast prenyl-protein transferases, Biochemistry 32:5167-5176). Human farnesyl protein transferase is partially-purified from the soluble protein fraction of E. coli as described above. The farnesyl protein transferase inhibitors disclosed herein may inhibit both human and rat enzyme with similar potencies. Two forms of val^12 -Ha-Ras protein are prepared as substrates for these enzymes, differing in their carboxy terminal sequence. One form terminates in cysteine-valine-leucine-serine (Ras-CVLS) the other in cystein-valine-leucine-leucine (Ras-CVLL). Ras-CVLS is a substrate for the farnesyl protein transferase while Ras-CVLL is a substrate for geranylgeranyl protein transferase I. The cDNAs encoding these proteins are constructed so that the proteins contain an amino-terminal extension of 6 histidine residues. Both proteins are expressed in Escherichia coli and purified using metal chelate affinity chromatography. The radiolabelled isoprenyl pyrophosphate substrates, [^3 H]farnesyl pyrophosphate and [^3 H]geranylgeranyl pyrophosphate, are purchased from a commercial source, such as DuPont/New England Nuclear.
Several methods for measuring farnesyl protein transferase activity are known (Reiss et al 1990, Cell 62: 81; Schaber et al 1990, J. Biol. Chem. 265: 14701; Manne et al 1990, PNAS 8: 7541; and Barbacid & Manne 1993, U.S. Pat. No. 5,185,248). […] Filter mats are washed once with 6% TCA, 2% SDS and radioactivity is measured in a Wallac 1204 Betaplate BS liquid scintillation counter. Percent inhibition is calculated relative to the DMSO vehicle control. […]
`Cc1c(C)c(C)c(C(=O)C2CCN(C(=O)Cc3ccncc3)CC2)c(C)c1C` had a pIC50 of 4.92. As for `O=C(c1ccc(F)cc1)C1CCN(C(=O)Cc2ccncc2)CC1`, the figure is less than 4.22; as for `O=C(c1ccc(Cl)cc1)C1CCN(C(=O)Cc2ccncc2)CC1`, 4.22; as for `O=C(c1ccccc1)C1CCN(C(=O)Cc2ccncc2)CC1`, less than 4.22.
